As a reminder, the IC50 is the concentration that gives 50% inhibition.

Results on 31 compounds are retold here after patent US10329270B2, “Heteroaryl compounds as BTK inhibitors and uses thereof” (Merck Patent GmbH, priority 2013, dated 2019).

One assay concerns the target T1, full-length human BTK (Homo sapiens, UniProt Q06187).
T1 construct: 2.5× stocks of full-length human BTK (08-080); purchased CarnaBio USA, Inc., Natick, Mass; 08-080
Put plainly: Assay A: BTK IC50 Enzyme Assay (microfluidic off-chip mobility shift kinase assay). In kind it is biochemical. The settings on record: full-length human BTK, kinKDR peptide substrate, incubated 90 min at 27 C; read-out: Assay A (Time Dependent BTK Enzyme Assay IC50). The method in brief:
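Off-chip microfluidic mobility shift assay with full-length human BTK; phosphorylated and unphosphorylated peptide substrate were separated by charge/mass on a LabChip 3000.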

The test system of the next assay is PBMC. Put plainly: Assay B: Time Dependent PMBC IC50 Assay. Format: cell-based. As to the method:
Assay B: Time Dependent PMBC IC50 Assay
Compounds described by embodiments of the present invention were assayed using a time dependent PMBC assay. The data from the same is recorded in Table 2 within the column labeled: “Time Dependent PBMC Assay IC50.” These IC50 values are reported in ranges wherein: I<1 uM and II>1 uM.

T1 sequence (Q06187 whole entry): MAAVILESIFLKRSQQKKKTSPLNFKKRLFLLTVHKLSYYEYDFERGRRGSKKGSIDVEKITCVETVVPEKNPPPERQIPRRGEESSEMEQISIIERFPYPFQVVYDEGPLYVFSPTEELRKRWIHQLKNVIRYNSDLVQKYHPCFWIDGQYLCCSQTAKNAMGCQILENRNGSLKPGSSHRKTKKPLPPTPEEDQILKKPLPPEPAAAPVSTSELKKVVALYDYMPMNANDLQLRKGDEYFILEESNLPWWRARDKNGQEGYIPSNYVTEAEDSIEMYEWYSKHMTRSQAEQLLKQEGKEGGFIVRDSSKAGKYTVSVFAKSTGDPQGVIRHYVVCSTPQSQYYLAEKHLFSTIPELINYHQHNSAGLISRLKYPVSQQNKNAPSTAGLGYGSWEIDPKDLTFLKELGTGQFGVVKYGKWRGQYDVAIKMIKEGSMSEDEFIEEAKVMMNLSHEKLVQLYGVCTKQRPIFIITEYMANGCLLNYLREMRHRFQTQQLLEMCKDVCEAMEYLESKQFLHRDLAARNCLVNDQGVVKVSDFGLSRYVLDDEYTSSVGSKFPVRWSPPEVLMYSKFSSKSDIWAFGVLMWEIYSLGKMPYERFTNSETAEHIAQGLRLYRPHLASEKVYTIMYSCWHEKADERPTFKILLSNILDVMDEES

For `C=CC(=O)N[C@H]1CCN(c2ccc(C(N)=O)c(Nc3ccc(C4CCN(C)CC4)cc3)n2)C1` [Compound 14, 6-((S)-3-Acryloylamino-pyrrolidin-1-yl)-2-[4-(1-methyl-piperidin-4-yl)-phenylamino]-nicotinamide], the IC50 at full-length human BTK and in the assay with PBMC was below 100 nM each time.

The compound `C=CC(=O)N1C[C@@H]2C[C@H]1CN2c1ccc(C(N)=O)c(Oc2ccc(Oc3ccccc3)cc2)n1` [Compound 23, 6-((1S,4S)-5-acryloyl-2,5-diazabicyclo[2.2.1]heptan-2-yl)-2-(4-phenoxyphenoxy)nicotinamide] displayed an IC50 in the assay with PBMC below 100 nM.

In the case of `C=CC(=O)N1CC[C@@H](Nc2ccc(C(N)=O)c(Oc3ccc(Oc4ccccc4)cc3)n2)C1` [Compound 72, 6-((R)-1-Acryloyl-pyrrolidin-3-ylamino)-2-(4-phenoxy-phenoxy)-nicotinamide], in the assay on PBMC, the IC50 is below 100 nM.

In the case of `C=CC(=O)Nc1cncc(-c2ccc(C(N)=O)c(Oc3ccc(Oc4ccccc4)cc3)n2)c1` [Compound 75, 5′-acrylamido-6-(4-phenoxyphenoxy)-[2,3′-bipyridine]-5-carboxamide], the IC50 on full-length human BTK and in the assay on PBMC was below 100 nM in each case.

As to `C=CC(=O)N1CC=C(c2ccc(C(N)=O)c(Nc3ccc(CCN4CCCC4)cc3)n2)CC1` [Compound 17, 1′-Acryloyl-6-[4-(2-pyrrolidin-1-yl-ethyl)-phenylamino]-1′,2′,3′,6′-tetrahydro-[2,4′]bipyridinyl-5-carboxylic acid amide], the IC50 at full-length human BTK and in the assay on PBMC was below 100 nM throughout.

`N#CN1CCC[C@H](c2cnc(Oc3ccc(Oc4ccccc4)cc3)c(C(N)=O)c2)C1` [Compound 241, (R)-5-(1-cyanopiperidin-3-yl)-2-(4-phenoxyphenoxy)nicotinamide]: the results for the IC50 at full-length human BTK and in the assay on PBMC were below 100 nM and 100 to 1000 nM, respectively.

As for `C=CC(=O)N1CCN(c2ncc(C(N)=O)c(Oc3ccc(Oc4ccccc4)cc3)n2)CC1` [Compound 173, 2-(4-Acryloyl-piperazin-1-yl)-4-(4-phenoxy-phenoxy)-pyrimidine-5-carboxylic acid amide], the IC50 on full-length human BTK and in the assay on PBMC was below 100 nM in each case.

`C=CC(=O)N(C)[C@H]1CCN(c2ccc(C(N)=O)c(Nc3ccc(CCN4CCCC4)cc3)n2)C1` [Compound 30, 6-[(S)-3-(Acryloyl-methyl-amino)-pyrrolidin-1-yl]-2-[4-(2-pyrrolidin-1-yl-ethyl)-phenylamino]-nicotinamide]: the IC50 at full-length human BTK and in the assay on PBMC was below 100 nM in each case.

In the case of `N#CN1CCCC(c2cnc(Oc3ccc(Oc4ccccc4)cc3)c(C(N)=O)c2)C1` (stereo not shown) [Compound 236, 1′-Cyano-6-(4-phenoxy-phenoxy)-1′,2′,3′,4′,5′,6′-hexahydro-[3,3′]bipyridinyl-5-carboxylic acid amide], the results for the IC50 at full-length human BTK and in the assay on PBMC were below 100 nM and 100 to 1000 nM, respectively.

`C=CC(=O)N[C@H]1CCN(c2nc(Nc3ccc(N4CC(C)OC(C)C4)cc3)c(C(N)=O)cc2F)C1` (stereo partly drawn) [Compound 188, 6-((S)-3-Acryloylamino-pyrrolidin-1-yl)-2-[4-(2,6-dimethyl-morpholin-4-yl)-phenylamino]-5-fluoro-nicotinamide]: the IC50 on full-length human BTK and in the assay on PBMC was below 100 nM each time.

For the compound `C=CC(=O)N[C@H]1CCN(c2nc(Nc3ccc(CCN4CCCC4)cc3)c(C(N)=O)cc2F)C1` [Compound 179, 6-((S)-3-Acryloylamino-pyrrolidin-1-yl)-5-fluoro-2-[4-(2-pyrrolidin-1-yl-ethyl)-phenylamino]-nicotinamide], the IC50 at full-length human BTK and in the assay with PBMC was below 100 nM in each case.

Consider `C=CC(=O)N1CCC(c2ccc(C(N)=O)c(Nc3ccc(CCN4CCCC4)cc3)n2)CC1` [Compound 18, 1′-Acryloyl-6-[4-(2-pyrrolidin-1-yl-ethyl)-phenylamino]-1′,2′,3′,4′,5′,6′-hexahydro-[2,4′]bipyridinyl-5-carboxylic acid amide], for which the IC50 on full-length human BTK and in the assay with PBMC was below 100 nM each time.

On to `C=CC(=O)N[C@H]1CCN(c2ccc(C(N)=O)c(Nc3ccc(CCN4CCCC4)cc3)n2)C1` [Compound 16, 6-((S)-3-Acryloylamino-pyrrolidin-1-yl)-2-[4-(2-pyrrolidin-1-yl-ethyl)-phenylamino]-nicotinamide], for which the half-inhibitory concentration (IC50) on full-length human BTK and with PBMC was below 100 nM in each case.

`C=CC(=O)N[C@H]1CCN(c2cc(Nc3ccc(C(=O)N4CCOCC4)cc3)c(C(N)=O)cn2)C1` [Compound 108, 6-((S)-3-Acryloylamino-pyrrolidin-1-yl)-4-[4-(morpholine-4-carbonyl)-phenylamino]-nicotinamide]: the IC50 on full-length human BTK was below 100 nM; in the assay on PBMC it was 100 to 1000 nM.

As to `C=CC(=O)N1C2CCC1CN(c1ccc(C(N)=O)c(Oc3ccc(Oc4ccccc4)cc3)n1)C2` [Compound 68, 6-(8-Acryloyl-3,8-diaza-bicyclo[3.2.1]oct-3-yl)-2-(4-phenoxy-phenoxy)-nicotinamide], in the assay on PBMC, the IC50 was below 100 nM.

On to `C=CC(=O)N[C@H]1CCN(c2ccc(C(N)=O)c(Oc3cccnc3)n2)C1` [Compound 92, 6-((S)-3-Acryloylamino-pyrrolidin-1-yl)-2-(pyridin-3-yloxy)-nicotinamide], for which, on full-length human BTK, the IC50 fell in the range of 100 to 1000 nM.

For `C=CC(=O)N[C@H]1CCN(c2cc(Oc3ccc(Oc4ccc(C)cc4)cc3)c(C(N)=O)cn2)C1` [Compound 114, (S)-6-(3-acrylamidopyrrolidin-1-yl)-4-(4-(p-tolyloxy)phenoxy)nicotinamide], the IC50 at full-length human BTK was 100 to 1000 nM.

For the compound `C=CC(=O)N[C@H]1CCN(c2ncnc(C(N)=O)c2Cl)C1` [Compound 172, 6-((S)-3-Acryloylamino-pyrrolidin-1-yl)-5-chloro-pyrimidine-4-carboxylic acid amide], the IC50 at full-length human BTK is above 5000 nM.

For the compound `C=CC(=O)NC1CCN(c2cnc(Oc3ccc(Oc4cccc(F)c4)cc3)c(C(N)=O)c2)C1` (stereo not shown) [Compound 219, 5-(3-Acryloylamino-pyrrolidin-1-yl)-2-[4-(3-fluoro-phenoxy)-phenoxy]-nicotinamide], the IC50 at full-length human BTK is 100 to 1000 nM.

In the case of `C=CC(=O)N[C@H]1CCN(c2nc(Nc3ccc(CCN4CCCC4)cc3)c(F)cc2C(N)=O)C1` [Compound 4, 2-((S)-3-Acryloylamino-pyrrolidin-1-yl)-5-fluoro-6-[4-(2-pyrrolidin-1-yl-ethyl)-phenylamino]-nicotinamide], on full-length human BTK, the half-maximal inhibitory concentration (IC50) was in the range of 100 to 1000 nM.

As for `C=CC(=O)N[C@H]1CCN(c2ccc(C(N)=O)c(Nc3cccnc3)n2)C1` [Compound 52, 6-((S)-3-Acryloylamino-pyrrolidin-1-yl)-2-(pyridin-3-ylamino)-nicotinamide], at full-length human BTK, the IC50 was below 100 nM.

On to `C=CC(=O)N1C[C@@H]2CCN(c3ncc(C(N)=O)c(Oc4ccc(Oc5ccccc5)cc4)n3)[C@@H]2C1` [Compound 203, 2-((3aS,6aS)-5-acryloylhexahydropyrrolo[3,4-b]pyrrol-1(2H)-yl)-4-(4-phenoxyphenoxy)pyrimidine-5-carboxamide], for which the IC50 at full-length human BTK lay in the range of 100 to 1000 nM.

Take `C=CC(=O)N[C@H]1CCN(c2nc(Nc3ccc(F)c(C)c3)ccc2C(N)=O)C1` [Compound 157, 2-((S)-3-Acryloylamino-pyrrolidin-1-yl)-6-(4-fluoro-3-methyl-phenylamino)-nicotinamide]: the IC50 at full-length human BTK was below 100 nM.

With `C=CC(=O)N1CC=C(c2cncc(C(N)=O)c2Nc2ccc(N3C[C@@H](C)O[C@@H](C)C3)nc2)CC1` [Compound 168, 1′-Acryloyl-4-[6-(cis-2,6-dimethyl-morpholin-4-yl)-pyridin-3-ylamino]-1′,2′,3′,6′-tetrahydro-[3,4′]bipyridinyl-5-carboxylic acid amide], the IC50 at full-length human BTK lay in the range of 1000 to 5000 nM.

In the case of `C=CC(=O)N[C@H]1CCN(c2ccc(C(N)=O)c(Nc3ccc(N4CC(C)OC(C)C4)cc3)n2)C1` (stereo partly drawn) [Compound 33, 6-((S)-3-Acryloylamino-pyrrolidin-1-yl)-2-[4-(2,6-dimethyl-morpholin-4-yl)-phenylamino]-nicotinamide], the IC50 on full-length human BTK is below 100 nM.

As to `C=CC(=O)NCc1ccc(-c2ccc(C(N)=O)c(Oc3ccc(Oc4ccccc4)cc3)n2)s1` [Compound 160, 6-(5-(acrylamidomethyl)thiophen-2-yl)-2-(4-phenoxyphenoxy)nicotinamide], the IC50 on full-length human BTK was above 5000 nM.

On to `C=CC(=O)N1C2CCC1CN(c1ncc(C(N)=O)c(Oc3ccc(Oc4ccccc4)cc3)n1)C2` [Compound 149, 2-(8-Acryloyl-3,8-diaza-bicyclo[3.2.1]oct-3-yl)-4-(4-phenoxy-phenoxy)-pyrimidine-5-carboxylic acid amide], for which the IC50 on full-length human BTK was below 100 nM.

Regarding `C=CC(=O)N1CC=C(c2cncc(C(N)=O)c2Nc2ccc(C(=O)N3CCCCC3)cc2)CC1` [Compound 169, 1′-Acryloyl-4-[4-(piperidine-1-carbonyl)-phenylamino]-1′,2′,3′,6′-tetrahydro-[3,4′]bipyridinyl-5-carboxylic acid amide], the IC50 at full-length human BTK fell in the range of 1000 to 5000 nM.

For `N#CN1CCC[C@@H](c2cnc(Oc3ccc(Oc4ccccc4)cc3)c(C(N)=O)c2)C1` [Compound 240, (S)-5-(1-cyanopiperidin-3-yl)-2-(4-phenoxyphenoxy)nicotinamide], at full-length human BTK, the IC50 was in the range of 100 to 1000 nM.

For `C=CC(=O)N1CCCN(c2ncc(C(N)=O)c(Oc3ccc(Oc4ccccc4)cc3)n2)CC1` [Compound 206, 2-(4-acryloyl-1,4-diazepan-1-yl)-4-(4-phenoxyphenoxy)pyrimidine-5-carboxamide], the IC50 on full-length human BTK fell in the range of 100 to 1000 nM.

With `C=CC(=O)N1CCCC(c2cnc(Oc3ccc(Oc4ccccc4)cc3)c(C(N)=O)c2)C1` (stereo not shown) [Compound 126, 1′-Acryloyl-6-(4-phenoxy-phenoxy)-1′,2′,3′,4′,5′,6′-hexahydro-[3,3′]bipyridinyl-5-carboxylic acid amide], on full-length human BTK, the IC50 is below 100 nM.
